# Read-outs that look alike come from different tables or passages of the source.
# Molecular target: T1, rat mGluR5 receptor (Rattus norvegicus, UniProt P31424)
# T1 construct: expressed in transfected cells; host or cells: HEK-293
# Assay: [3H]-MPEP displacement binding assay, HEK-293 cell membranes expressing rat mGluR5
# Conditions: for Ki: read-out: Median Ki
# Protocol: MGluR5 expressing HEK-293 cells were scraped off a plate, transferred to centrifuge tubes and washed twice by centrifugation (2000 rpm for 10 minutes, at 4° C.) in buffer (50 mM Tris pH 7.5). The resulting pellets were aliquoted and stored at minus 80° C. On the day of assay, the cells were thawed on ice and re-suspended in buffer. The binding assay was performed in a 96 well microtiter plate in a total volume of […]. Non-specific binding was determined in the presence of 10 μM MPEP. The binding reaction included a final radioligand [^3H]-MPEP concentration of 4 nM and 12-25 μg membrane protein per well. Following a 60 minute incubation at room temperature, the reaction was terminated by the addition of ice cold buffer and rapid filtration through a GF/B filter that had been presoaked for 30 minutes in 0.5% PEI. Compounds were initially tested in a single point assay to determine percent inhibition at 10 μM.
# Percent inhibition and Ki values were generated by GraphPad Prism and Excel Fit. IC50 values were calculated using GraphPad by fitting to a 1 or 2 site-binding model.
# where [L] is the concentration of free radioligand and Kd is the dissociation constant of radioligand for the receptor.
# [1] = 1 h, single point, @ 10 μm compound, Table 1A, read-out: PCT INHIB (%) @ 10 μm
# [2] = @ 10 μM compound, Biological Activity, Table 2A, read-out: PCT INHIB (%) @ 10 μM
# T1 sequence (P31424 21-1203): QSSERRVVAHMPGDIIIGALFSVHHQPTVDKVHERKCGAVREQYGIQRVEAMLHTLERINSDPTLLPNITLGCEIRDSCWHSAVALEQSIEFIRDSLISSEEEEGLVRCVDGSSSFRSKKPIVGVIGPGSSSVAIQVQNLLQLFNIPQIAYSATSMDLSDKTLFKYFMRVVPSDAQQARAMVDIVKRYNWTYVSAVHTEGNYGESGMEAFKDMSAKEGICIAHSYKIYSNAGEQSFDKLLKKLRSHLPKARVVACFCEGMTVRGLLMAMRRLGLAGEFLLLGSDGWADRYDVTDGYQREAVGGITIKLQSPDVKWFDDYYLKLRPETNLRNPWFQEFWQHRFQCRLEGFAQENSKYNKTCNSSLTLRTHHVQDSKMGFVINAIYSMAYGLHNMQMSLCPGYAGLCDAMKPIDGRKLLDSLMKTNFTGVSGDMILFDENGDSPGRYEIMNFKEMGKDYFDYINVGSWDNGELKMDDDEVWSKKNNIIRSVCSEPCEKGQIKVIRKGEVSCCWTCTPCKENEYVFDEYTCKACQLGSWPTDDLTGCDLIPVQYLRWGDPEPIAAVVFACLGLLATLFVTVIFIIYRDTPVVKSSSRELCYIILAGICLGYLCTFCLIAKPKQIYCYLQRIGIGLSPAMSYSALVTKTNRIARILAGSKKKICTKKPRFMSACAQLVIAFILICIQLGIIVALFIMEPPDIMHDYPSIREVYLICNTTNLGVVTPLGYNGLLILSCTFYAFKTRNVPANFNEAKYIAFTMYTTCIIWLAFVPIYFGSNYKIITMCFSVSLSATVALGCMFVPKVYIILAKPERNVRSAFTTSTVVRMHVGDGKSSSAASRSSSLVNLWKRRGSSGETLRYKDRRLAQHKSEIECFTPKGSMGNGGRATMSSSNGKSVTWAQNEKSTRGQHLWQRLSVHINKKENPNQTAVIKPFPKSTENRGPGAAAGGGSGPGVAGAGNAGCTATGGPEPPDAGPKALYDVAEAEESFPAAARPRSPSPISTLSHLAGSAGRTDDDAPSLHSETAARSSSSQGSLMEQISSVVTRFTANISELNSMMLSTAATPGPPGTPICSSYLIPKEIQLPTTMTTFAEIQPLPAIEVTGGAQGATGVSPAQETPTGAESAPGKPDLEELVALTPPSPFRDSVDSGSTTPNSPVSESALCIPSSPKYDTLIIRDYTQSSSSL
SMILES,inhibition at 10 µM [1] [%],Ki [nM],inhibition at 10 µM [2] [%],also measured
"COc1ccc(C(=O)N2CCN(c3ccccn3)CC2)cc1C#Cc1ccncc1 [Compound 45, 1-[4-methoxy-3-(pyridin-4-ylethynyl)benzoyl]-4-pyridin-2-ylpiperazine]",68,990,,
"Cc1ccc(C(=O)N2CCN(c3ccccn3)CC2)cc1C#Cc1cccc(O)c1 [Compound 46, 3-({2-methyl-5-[(4-pyridin-2-ylpiperazin-1-yl)carbonyl]phenyl}ethynyl)phenol]",71,1310,,
"Cc1ccc(C(=O)N2CCN(c3ccccn3)CC2)cc1C#Cc1cc(C(F)(F)F)cc(C(F)(F)F)c1 [Compound 47, 1-(3-{[3,5-bis(trifluoromethyl)phenyl]ethynyl}-4-methylbenzoyl)-4-pyridin-2-ylpiperazine]",0,,,
"Cc1ccc(C(=O)N2CCN(c3ccccn3)CC2)cc1C#Cc1ccncc1 [Compound 48, 1-[4-methyl-3-(pyridin-4-ylethynyl)benzoyl]-4-pyridin-2-ylpiperazine]",49,,,
"COc1ccc(C(=O)N2CCN(c3cnccn3)CC2)cc1C#CC1=CCCCC1 [Compound 50, 2-{4-[3-(cyclohex-1-en-1-ylethynyl)-4-methoxybenzoyl]piperazin-1-yl}pyrazine]",90,171,,
"COc1ccc(C(=O)N2CCN(c3cnccn3)CC2)cc1C#CCc1ccccc1 [Compound 51, 2-{4-[4-methoxy-3-(3-phenylprop-1-yn-1-yl)benzoyl]piperazin-1-yl}pyrazine]",92,33.9,,
"COc1cccc(C#Cc2cc(C(=O)N3CCN(c4cnccn4)CC3)ccc2OC)c1 [Compound 52, 2-(4-{4-methoxy-3-[(3-methoxyphenyl)ethynyl]benzoyl}piperazin-1-yl)pyrazine]",81,60.1,,
"COc1ccc(C(=O)N2CCN(c3cnccn3)CC2)cc1C#Cc1cccc(C)c1 [Compound 53, 2-(4-{4-methoxy-3-[(3-methylphenyl)ethynyl]benzoyl}piperazin-1-yl)pyrazine]",95,8.63,,
"COc1ccc(C(=O)N2CCN(c3cnccn3)CC2)cc1C#Cc1cccc(C(F)(F)F)c1 [Compound 54, 2-[4-(4-methoxy-3-{[3-(trifluoromethyl)phenyl]ethynyl}benzoyl)piperazin-1-yl]pyrazine]",96,109,,
"Cc1ccc(C(=O)N2CCN(c3cnccn3)CC2)cc1C#CC1=CCCCC1 [Compound 56, 2-{4-[3-(cyclohex-1-en-1-ylethynyl)-4-methylbenzoyl]piperazin-1-yl}pyrazine]",70,1890,,
"Cc1ccc(C(=O)N2CCN(c3cnccn3)CC2)cc1C#CCc1ccccc1 [Compound 57, 2-{4-[4-methyl-3-(3-phenylprop-1-yn-1-yl)benzoyl]piperazin-1-yl}pyrazine]",87,363,,
"COc1cccc(C#Cc2cc(C(=O)N3CCN(c4cnccn4)CC3)ccc2C)c1 [Compound 58, 2-(4-{3-[(3-methoxyphenyl)ethynyl]-4-methylbenzoyl}piperazin-1-yl)pyrazine]",93,322,,
"Cc1cccc(C#Cc2cc(C(=O)N3CCN(c4cnccn4)CC3)ccc2C)c1 [Compound 59, 2-(4-{4-methyl-3-[(3-methylphenyl)ethynyl]benzoyl}piperazin-1-yl)pyrazine]",100,62.5,,
"Cc1ccc(C(=O)N2CCN(c3cnccn3)CC2)cc1C#Cc1cccc(C(F)(F)F)c1 [Compound 60, 2-[4-(4-methyl-3-{[3-(trifluoromethyl)phenyl]ethynyl}benzoyl)piperazin-1-yl]pyrazine]",85,749,,
"COc1ccc(C(=O)N2CCN(c3cnccn3)CC2)cc1C#Cc1cccc(F)c1 [Compound 61, 2-(4-{3-[(3-fluorophenyl)ethynyl]-4-methoxybenzoyl}piperazin-1-yl)pyrazine]",,21.7,,
"Cc1ccc(C(=O)N2CCN(c3cnccn3)CC2)cc1C#Cc1cccc(F)c1 [Compound 62, 2-(4-{3-[(3-fluorophenyl)ethynyl]-4-methylbenzoyl}piperazin-1-yl)pyrazine]",,121,,
"COc1ccc(C(=O)N2CCN(c3ccccn3)CC2)cc1C#Cc1cccc(F)c1 [Compound 63, 1-{3-[(3-fluorophenyl)ethynyl]-4-methoxybenzoyl}-4-pyridin-2-ylpiperazine]",,7.34,,
"Cc1ccc(C(=O)N2CCN(c3ccccn3)CC2)cc1C#Cc1cccc(F)c1 [Compound 64, 1-{3-[(3-fluorophenyl)ethynyl]-4-methylbenzoyl}-4-pyridin-2-ylpiperazine]",,131,,
"COc1ccc(C(=O)N2CCN(c3cnccn3)CC2)cc1C#Cc1cccc(Cl)c1 [Compound 65, 2-(4-{3-[(3-chlorophenyl)ethynyl]-4-methoxybenzoyl}piperazin-1-yl)pyrazine]",,2.11,,

SMILES,inhibition at 10 µM [1] [%],Ki [nM],inhibition at 10 µM [2] [%],also measured
"COc1ccc(C(=O)N2CCN(c3cnccn3)CC2)cc1C#Cc1ccccn1 [Compound 66, 2-{4-[4-methoxy-3-(pyridin-2-ylethynyl)benzoyl]piperazin-1-yl}pyrazine]",,21.2,,
"Cc1ccc(C(=O)N2CCN(c3cnccn3)CC2)cc1C#Cc1cccc(Cl)c1 [Compound 67, 2-(4-{3-[(3-chlorophenyl)ethynyl]-4-methylbenzoyl}piperazin-1-yl)pyrazine]",,49.1,,
"Cc1ccc(C(=O)N2CCN(c3cnccn3)CC2)cc1C#Cc1ccccn1 [Compound 68, 2-{4-[4-methyl-3-(pyridin-2-ylethynyl)benzoyl]piperazin-1-yl}pyrazine]",,8.84,,
"CN1CCN(C(=O)c2cccc(C#Cc3ccccc3)c2)CC1 [Compound 70, 1-methyl-4-[3-(phenylethynyl)benzoyl]piperazine]",,,0,
"COc1ccc(N2CCN(C(=O)c3cccc(C#Cc4ccccc4)c3)CC2)cc1 [Compound 71, 1-(4-methoxyphenyl)-4-[3-(phenylethynyl)benzoyl]piperazine]",,,40,
"O=C(c1cccc(C#Cc2ccccc2)c1)N1CCN(c2ccc(Cl)cc2)CC1 [Compound 72, 1-(4-chlorophenyl)-4-[3-(phenylethynyl)benzoyl]piperazine]",,,30,
"Cc1ccc(N2CCN(C(=O)c3cccc(C#Cc4ccccc4)c3)CC2)cc1 [Compound 73, 1-(4-methylphenyl)-4-[3-(phenylethynyl)benzoyl]piperazine]",,,0,
"CC(=O)c1ccc(N2CCN(C(=O)c3cccc(C#Cc4ccccc4)c3)CC2)cc1 [Compound 74, 1-(4-{-[3-(phenylethynyl)benzoyl]piperazine-1-yl}phenyl)ethanone]",,,,"PCT INHIB (%) @ 10 μM (@ 10 μM compound, Biological Activity, Table 2A): 20%"
"O=C(c1cccc(C#Cc2ccccc2)c1)N1CCN(c2ccc([N+](=O)[O-])cc2)CC1 [Compound 75, 1-(4-nitrophenyl)-4-[3-(phenylethynyl)benzoyl]piperazine]",,,20,
"O=C(c1cccc(C#Cc2ccccc2)c1)N1CCN(c2ccccc2)CC1 [Compound 76, 1-phenyl-4-[3-(phenylethynyl)benzoyl]piperazine]",,,86,"Ki (Biological Activity, Table 2A): 1290 nM"
"O=C(c1cccc(C#Cc2ccccc2)c1)N1CCN(c2ccc(C(F)(F)F)cc2)CC1 [Compound 77, 1-[3-(phenylethynyl)benzoyl]-4-[4-(trifluoromethyl)phenyl]piperazine]",,,0,
"Cc1cccc(C)c1N1CCN(C(=O)c2cccc(C#Cc3ccccc3)c2)CC1 [Compound 78, 1-(2,6-dimethylphenyl)-4-[3-(phenylethynyl)benzoyl]piperazine]",,,53,"Ki (Biological Activity, Table 2A): > 10000 nM"
"O=C(c1cccc(C#Cc2ccccc2)c1)N1CCN(c2ccc(F)cc2)CC1 [Compound 79, 1-(4-fluorophenyl)-4-[3-(phenylethynyl)benzoyl]piperazine]",,,28,
"CSc1ccccc1N1CCN(C(=O)c2cccc(C#Cc3ccccc3)c2)CC1 [Compound 80, 1-[2-(methylthio)phenyl]-4-[3-(phenylethynyl)benzoyl]piperazine]",,,24,
"COc1cccc(N2CCN(C(=O)c3cccc(C#Cc4ccccc4)c3)CC2)c1 [Compound 81, 1-(3-methoxyphenyl)-4-[3-(phenylethynyl)benzoyl]piperazine]",,,78,"Ki (Biological Activity, Table 2A): 3390 nM"
"O=C(c1cccc(C#Cc2ccccc2)c1)N1CCN(c2cccc(Cl)c2)CC1 [Compound 82, 1-(3-chlorophenyl)-4-[3-(phenylethynyl)benzoyl]piperazine]",,,58,"Ki (Biological Activity, Table 2A): 2770 nM"
"O=C(c1cccc(C#Cc2ccccc2)c1)N1CCN(c2ccc(O)cc2)CC1 [Compound 83, 4-{4-[3-(phenylethynyl)benzoyl]piperazin-1-yl}phenol]",,,74,"Ki (Biological Activity, Table 2A): > 10000 nM"
"O=C(c1cccc(C#Cc2ccccc2)c1)N1CCN(c2cc(Cl)cc(Cl)c2)CC1 [Compound 84, 1-(3,5-dichlorophenyl)-4-[3-(phenylethynyl)benzoyl]piperazine]",,,0,
"O=C(c1cccc(C#Cc2ccccc2)c1)N1CCN(c2cccc(C(F)(F)F)c2)CC1 [Compound 85, 1-[3-(phenylethynyl)benzoyl]-4-[3-(trifluoromethyl)phenyl]piperazine]",,,32,
